SMILES strings stand for the structures.

One assay concerns the target T1, IKZF2 (Homo sapiens, UniProt Q96SW2+Q9UKS7).
T1 construct: expressed in transfected cells
Briefly: Prolabel quantification of IKZF2 protein levels in 293GT cells. The class given is cell-based. The settings on record: Pro-label assay in 293GT cells; for IKZF2 Degradation (%): % degradation is at 10 μM; for AC50: read-out: IKZF2 Degradation AC50. As to the method:
(§1) The Prolabel system from DiscoverX was used to develop high-throughput and quantitative assays to measure changes in IKZF1, IKZF2 and GSPT1 protein levels in response to compounds. The prolabel tag was derived from the alpha fragment of beta galactosidase and has the following protein sequence: mssnslavvlqadwenpgvtqlnrlaahppfaswrnseeartdrpsqqlislnge. The complementary fragment of beta-galactosidase (from DiscoverX), is added to the prolabel tag to form an active beta galactosidase enzyme whose activity can be precisely measured. In this way, the levels of a fusion protein with the prolabel tag can be quantified in cell lysates.
(§2) Lentiviral vectors, based on the Invitrogen pLenti6.2/V5 DEST backbone, were constructed that placed the prolabel tag upstream of IKZF1, IKZF2 or GSPT1 and expressed the fusion protein from a CMV promoter.
(§3) To ensure moderate and consistent expression of the prolabel fusion proteins across all cells in the population, stable cell lines were constructed from cells expressing a single copy of the construct. Lentivirus packaged with the constructs was made using the Virapower kit from Invitrogen.
(§4) The levels of prolabel tagged fusion proteins in compound treated cell lines were measured as follows:
(§5) Day 1, Cells were diluted to 1.0×10^6 cells/ml in normal growth medium. 17.5 μL, of cells were plated in each well of a solid white 384 well plate. Plates were incubated overnight in a 37° C. tissue culture incubator.
(§6) Day 2, Serial dilutions of compounds were made in 384 well plates from 10 mM stocks. 15 μL, of DMSO was added to each well of a 384 well plate. In the first column, 15 μL of stock compound was added. The solution was mixed and 15 μL was transferred to the next column. This was repeated until 20 two-fold dilutions were prepared. 2.5 μL, of diluted compounds were transferred into 60 μL of cell culture medium in another 384 well plate, and mixed well. 2.5 μL of this mixture was added to the plated cells. The final DMSO concentration was 0.5% and the highest concentration of compound was 50 μM. Plates were incubated overnight (e.g., about 14 h, 18 h, or 24 h) in a 37° C. tissue culture incubator.
(§7) Day 3, Plates were removed from the incubator and allowed to equilibrate at rt for 30 minutes. Prolabel substrate (DiscoverX PathHunter Prolabel Detection Kit, User manual: 93-0180) was added as described by the manufacturers protocols. Plates were incubated at rt for three hours and luminescence was read using an Envision reader (Perkin Elmer) Data was analyzed and visualized using the Spotfire software package.

In the next assay the target is T2, IKZF1 (Homo sapiens, UniProt Q13422+Q96SW2).
T2 construct: expressed in transfected cells
T2 sequence (Q13422 whole entry): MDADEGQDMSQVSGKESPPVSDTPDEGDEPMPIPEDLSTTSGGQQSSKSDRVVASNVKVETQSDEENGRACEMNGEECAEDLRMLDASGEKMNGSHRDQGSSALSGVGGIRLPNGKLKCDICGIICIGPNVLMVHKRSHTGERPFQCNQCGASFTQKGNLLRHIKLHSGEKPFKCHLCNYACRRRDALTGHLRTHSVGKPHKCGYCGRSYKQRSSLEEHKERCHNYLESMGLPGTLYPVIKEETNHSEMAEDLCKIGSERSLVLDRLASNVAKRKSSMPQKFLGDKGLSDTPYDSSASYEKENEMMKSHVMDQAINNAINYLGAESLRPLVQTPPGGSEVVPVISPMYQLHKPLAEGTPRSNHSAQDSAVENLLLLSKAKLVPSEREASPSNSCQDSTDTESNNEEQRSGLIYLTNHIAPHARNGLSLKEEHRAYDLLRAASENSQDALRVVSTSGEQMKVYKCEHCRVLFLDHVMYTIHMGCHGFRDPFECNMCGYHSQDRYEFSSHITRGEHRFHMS
T2 sequence (Q96SW2 whole entry): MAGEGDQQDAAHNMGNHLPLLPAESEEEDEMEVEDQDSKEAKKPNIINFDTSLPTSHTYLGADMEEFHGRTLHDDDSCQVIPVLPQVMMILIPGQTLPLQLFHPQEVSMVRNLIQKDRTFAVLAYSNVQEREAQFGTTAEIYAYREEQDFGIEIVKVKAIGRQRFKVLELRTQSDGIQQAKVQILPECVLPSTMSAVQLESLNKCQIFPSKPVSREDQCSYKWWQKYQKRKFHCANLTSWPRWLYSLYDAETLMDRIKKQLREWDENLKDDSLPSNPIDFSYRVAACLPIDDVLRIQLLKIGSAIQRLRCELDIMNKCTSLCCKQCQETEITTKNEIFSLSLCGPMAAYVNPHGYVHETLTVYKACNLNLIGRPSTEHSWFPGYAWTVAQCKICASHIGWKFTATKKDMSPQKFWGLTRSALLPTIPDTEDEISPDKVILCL
T2 sequence (Q16531 whole entry partner): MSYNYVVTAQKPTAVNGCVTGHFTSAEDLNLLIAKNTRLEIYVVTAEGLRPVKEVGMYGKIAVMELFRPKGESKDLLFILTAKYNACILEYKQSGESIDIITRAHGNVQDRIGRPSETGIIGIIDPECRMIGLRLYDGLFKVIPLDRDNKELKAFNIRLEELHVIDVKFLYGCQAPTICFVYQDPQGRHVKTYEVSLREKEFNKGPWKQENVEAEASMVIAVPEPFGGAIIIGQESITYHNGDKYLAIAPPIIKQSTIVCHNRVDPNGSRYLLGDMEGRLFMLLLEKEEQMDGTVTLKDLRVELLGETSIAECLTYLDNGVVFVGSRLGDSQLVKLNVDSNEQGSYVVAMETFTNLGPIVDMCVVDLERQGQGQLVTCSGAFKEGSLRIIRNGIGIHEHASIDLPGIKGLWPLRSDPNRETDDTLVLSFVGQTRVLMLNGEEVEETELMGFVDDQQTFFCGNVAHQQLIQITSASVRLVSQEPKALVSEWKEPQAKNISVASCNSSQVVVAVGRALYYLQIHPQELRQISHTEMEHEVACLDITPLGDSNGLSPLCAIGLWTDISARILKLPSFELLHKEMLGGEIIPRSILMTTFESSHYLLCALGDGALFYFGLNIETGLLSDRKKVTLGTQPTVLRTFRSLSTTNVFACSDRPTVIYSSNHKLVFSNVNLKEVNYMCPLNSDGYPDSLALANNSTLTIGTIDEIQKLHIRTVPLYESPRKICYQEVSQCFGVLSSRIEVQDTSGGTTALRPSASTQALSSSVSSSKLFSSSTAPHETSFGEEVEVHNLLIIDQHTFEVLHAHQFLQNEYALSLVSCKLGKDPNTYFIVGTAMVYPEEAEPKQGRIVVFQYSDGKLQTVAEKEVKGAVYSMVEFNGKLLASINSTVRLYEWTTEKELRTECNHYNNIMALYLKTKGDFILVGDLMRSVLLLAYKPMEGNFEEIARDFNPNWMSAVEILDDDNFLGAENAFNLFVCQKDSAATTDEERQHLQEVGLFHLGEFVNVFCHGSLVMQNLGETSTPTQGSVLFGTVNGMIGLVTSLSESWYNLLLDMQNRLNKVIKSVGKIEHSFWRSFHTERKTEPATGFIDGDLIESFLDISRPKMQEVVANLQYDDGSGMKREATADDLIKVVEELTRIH
Briefly: Prolabel quantification of IKZF1 protein levels in 293GT cells. The note with it: Pro-label assay in 293GT cells; for AC50: read-out: IKZF1 Degradation AC50; for IKZF1 Degradation (%): % degradation is at 10 μM. The class given is cell-based. As to the method:
as §1, §2, §3, §4, §5, §6, §7

T1 sequence (Q9UKS7 whole entry): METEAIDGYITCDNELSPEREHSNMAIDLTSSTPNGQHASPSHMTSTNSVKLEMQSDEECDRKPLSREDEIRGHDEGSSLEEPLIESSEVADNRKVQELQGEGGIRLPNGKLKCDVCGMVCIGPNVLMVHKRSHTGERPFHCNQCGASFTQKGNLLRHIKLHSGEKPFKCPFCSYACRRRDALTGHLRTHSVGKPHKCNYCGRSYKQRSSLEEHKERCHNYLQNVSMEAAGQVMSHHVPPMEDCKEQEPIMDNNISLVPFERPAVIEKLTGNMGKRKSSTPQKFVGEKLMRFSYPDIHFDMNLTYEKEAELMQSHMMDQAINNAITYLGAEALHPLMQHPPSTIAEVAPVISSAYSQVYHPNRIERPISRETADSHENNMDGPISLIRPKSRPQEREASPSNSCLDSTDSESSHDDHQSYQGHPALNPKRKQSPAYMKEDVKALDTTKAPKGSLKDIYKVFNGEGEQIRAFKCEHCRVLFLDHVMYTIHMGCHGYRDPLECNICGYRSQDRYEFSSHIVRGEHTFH
T1 sequence (Q96SW2 whole entry): as the sequence (Q96SW2 whole entry) above
T1 sequence (Q16531 whole entry partner): as the sequence (Q16531 whole entry partner) above

Consider `O=C1CCC(N2Cc3nc(C4CCN(Cc5ccccc5)CC4)ccc3C2=O)C(=O)N1` (stereo not drawn) [Compound I-1, 3-(2-(1-benzylpiperidin-4-yl)-5-oxo-5,7-dihydro-6H-pyrrolo[3,4-b]pyridin-6-yl)piperidine-2,6-dione], for which, on IKZF2, the “IKZF2 Degradation (%)” value was determined as 33%. Moreover, the AC50 on IKZF2 is 260 nM; on IKZF1, over 30000 nM.

In the case of `Nc1cccc2c1C(=O)N(C1CCC(=O)NC1=O)C2=O` (stereo not drawn) [Pomalidomide, 4-amino-2-(2,6-dioxopiperidin-3-yl)isoindoline-1,3-dione, reference compound], the “IKZF1 Degradation (%)” value at IKZF1 was 80%.

For the molecule `Cc1c(C2CCN(Cc3ccccc3)CC2)ccc2c1CN(C1CCC(=O)NC1=O)C2=O` (stereo not drawn) [Compound I-5, 3-(5-(1-benzylpiperidin-4-yl)-4-methyl-1-oxoisoindolin-2-yl)piperidine-2,6-dione], on IKZF2, the “IKZF2 Degradation (%)” value came out at 59% and the AC50 amounted to 110 nM. Also, the AC50 on IKZF1 is over 30000 nM.

As to `O=C1CCC(N2Cc3c(ccc(C4CCN(Cc5ccccc5)CC4)c3F)C2=O)C(=O)N1` (stereo not drawn) [Compound I-3, 3-(5-(1-benzylpiperidin-4-yl)-4-fluoro-1-oxoisoindolin-2-yl)piperidine-2,6-dione], the “IKZF2 Degradation (%)” value at IKZF2 is reported as 72%. The results for the AC50 at IKZF2 and on IKZF1 were 6 nM and over 30000 nM, respectively.

As to `O=C1CCC(N2Cc3cc(C4CCN(Cc5ccncc5)CC4)c(F)cc3C2=O)C(=O)N1` (stereo not drawn) [Compound I-16, 3-(6-fluoro-1-oxo-5-(1-(pyridin-4-ylmethyl)piperidin-4-yl)isoindolin-2-yl)piperidine-2,6-dione], on IKZF2, the “IKZF2 Degradation (%)” value stood at 42% and the AC50 amounted to 560 nM. At IKZF1, the “IKZF1 Degradation (%)” value turned out to be 22% and the half-maximal activity concentration (AC50) is 7600 nM.

As for `COc1c(C2=CCN(Cc3ccccc3)CC2)ccc2c1CN(C1CCC(=O)NC1=O)C2=O` (stereo not drawn) [Compound I-20, 3-(5-(1-benzyl-1,2,3,6-tetrahydropyridin-4-yl)-4-methoxy-1-oxoisoindolin-2-yl)piperidine-2,6-dione], at IKZF2, the “IKZF2 Degradation (%)” value stood at 42% and the AC50 stood at 200 nM. Besides, at IKZF1, the “IKZF1 Degradation (%)” value is on record as 40% and the AC50 worked out at 66 nM.

Take `O=C1CCC(N2Cc3cc(C4CCN(Cc5ccccc5)CC4)ncc3C2=O)C(=O)N1` (stereo not drawn) [Compound I-2, 3-(6-(1-benzylpiperidin-4-yl)-3-oxo-1,3-dihydro-2H-pyrrolo[3,4-c]pyridin-2-yl)piperidine-2,6-dione]: the half-maximal activity concentration (AC50) on IKZF2 and at IKZF1 was over 30000 nM in each case.

Turning to `CO[C@H]1CC[C@H](CN2CCC(c3ccc4c(c3Cl)CN(C3CCC(=O)NC3=O)C4=O)CC2)CC1` (stereo partly drawn) [Compound I-17, 3-(4-chloro-5-(1-(((1r,4r)-4-methoxycyclohexyl)methyl)piperidin-4-yl)-1-oxoisoindolin-2-yl)piperidine-2,6-dione], on IKZF2, the “IKZF2 Degradation (%)” value turned out to be 30% and the AC50 turned out to be 75 nM. Also, at IKZF1, the “IKZF1 Degradation (%)” value is reported as 40% and the AC50 stood at 130 nM.

The record behind these values is patent publication US12479817B2, “Substituted 3-(1-oxoisoindolin-2-yl)piperidine-2,6-dione derivatives and uses thereof” (Novartis AG, priority 2019, dated 2025).
